Laboratory results reported in patent publication US11225504B2, “Functional polypeptide and its application thereof in preparing medicament for preventing and treating pulmonary fibrosis” (Guangdong Medical University, priority 2017, dated 2022).
Residues, ends and D or L forms follow the SMILES beside them.

How the values were obtained:
[1] = test system: human normal lung epithelial cell BEAS-2B; assay: Growth effects on human normal lung epithelial cell BEAS-2B (FIG. 4); type: cell-based
[2] = test system: bleomycin-induced pulmonary fibrosis; assay: Prevention and treatment of pulmonary fibrosis IPF experiment (bleomycin-induced, mice); type: in vivo, C57 mice
Protocol: (1) Animals: SPF grade C57 mice, 22 g±2 g, 60 mice, females. The mice was divided into the following groups using the random digits table: the control group, the model group, the pirfenidone group (50 mg/kg), the EZY-1 polypeptide low dose group (0.25 mg/kg), the EZY-1 polypeptide medium dose group (0.5 mg/kg), the EZY-1 polypeptide high dose group (1.0 mg/kg), 10 animals per group. (3) After the mice were anesthetized by intraperitoneal injection of 1% sodium pentobarbital at a dose of 50 mg/kg, they are fixed to the operation console on their back. Their tongues were pulled out with tweezers to expose the trachea, and 5 mg/kg Bleomycin was slowly injected under a cold light source magnifying glass. Immediately after the injection, the operation console was erected and rotated for 3 minutes to evenly distribute the drug solution in the lungs. The control group was injected with an equal volume of isotonic saline in the same way as the previous method. After 10 days, the mice were intra-gastrically administered with 0.1 ml/10 g with drugs. The control group and the model group were intra-gastrically administered with an equal volume of isotonic saline. The other groups were intra-gastrically administered with the corresponding dose of the drug for 35 days, once a day. After 35 days of drug administration, the mice were anesthetized and sacrificed, and the two intact lung tissues were isolated and weighed. The same part of the right upper lobe was taken, fixed with 4% paraformaldehyde for 48 hours, and paraffin sections were generated for Hematoxylin-Eosin (HE) staining for histopathological observations. The same part of the […] was taken for the measurement of HYP content in the lung tissue. Plasma was collected for the measurement of T-SOD, MDA, and GSH-PX levels. Statistical analysis was performed using SPSS 17.0 software. Measurement data were expressed as mean±standard deviation (x±s). Comparison of the means in multiple samples was performed by one-way ANOVA. Comparison between groups was performed by t test, with P≤0.05 indicating statistically significant differences.

[3] = 50 mg/kg intragastric once a day for 35 days, bleomycin mice, mean ± SD

Row | Structure (SMILES) | toxicity to normal cells (growth of BEAS-2B) [1] | GSH-PX (plasma) [2, 3] [active unit] | HYP (lung tissue) [2, 3] | MDA (plasma) [2, 3] [nmal/mL] | T-SOD (plasma) [2, 3] [U/mL] | pathological changes of lung tissue (HE staining, FIG. 5) ([2]; EZY-1 low, medium and high dose (0.25, 0.5, 1.0 mg/kg), pirfenidone 50 mg/kg, 35 days)
1 | CC[C@H](C)[C@H](NC(=O)CNC(=O)[C@H](CC(N)=O)NC(=O)[C@H](Cc1ccc(O)cc1)NC(=O)[C@@H](NC(=O)[C@@H](NC(=O)[C@H](CS)NC(=O)[C@H](Cc1ccccc1)NC(=O)[C@H](CS)NC(=O)[C@H](C)NC(=O)CNC(=O)[C@@H](NC(=O)[C@@H](N)CCCNC(=N)N)[C@@H](C)O)C(C)C)[C@@H](C)CC)C(=O)N[C@@H](CC(C)C)C(=O)N[C@@H](Cc1ccc(O)cc1)C(=O)N1CCC[C@H]1C(=O)O [EZY-1 polypeptide, RTGACFCVIYNGILYP] (H-RTGACFCVIYNGILYP-OH) | low toxicity to normal cells | – | – | – | – | –
2 | Cc1ccc(=O)n(-c2ccccc2)c1 [pirfenidone] | – | 672.92 ± 98.72 | 48.36 ± 5.01 μg/g lung tissues Wet weight | 6.52 ± 0.71 | 156.05 ± 17.32 | reduce alveolar structural damage, reduce collagen fiber production, and inhibit the inflammatory cell infiltration
